In ChEMBL document CHEMBL1201862, “PubChem BioAssay data set” (2004):
Active and inactive are the calls of the source.

Assays:
[1] = molecular target: T1, Calpain-2 catalytic subunit (Sus scrofa, UniProt P43367); assay: m-calpain protease blockers, concentration series – biochemical, fluorogenic peptide substrate, dose response (AID 1420); format: functional
T1 sequence (P43367 whole entry): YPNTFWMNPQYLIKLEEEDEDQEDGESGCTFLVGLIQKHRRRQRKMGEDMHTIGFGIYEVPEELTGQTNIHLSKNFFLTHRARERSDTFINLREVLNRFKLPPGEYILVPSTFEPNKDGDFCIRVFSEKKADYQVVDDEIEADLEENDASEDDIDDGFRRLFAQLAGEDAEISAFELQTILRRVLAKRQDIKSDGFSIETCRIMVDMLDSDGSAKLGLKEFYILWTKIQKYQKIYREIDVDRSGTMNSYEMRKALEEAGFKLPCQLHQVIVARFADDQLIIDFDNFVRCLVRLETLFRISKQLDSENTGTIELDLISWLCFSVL

[2] = A Cell Based Secondary Assay To Explore Cytotoxicity of Compounds that Sensitize Mycobacterium Tuberculosis to Beta-Lactam Antibiotics.; format: functional
[3] = Luminescence Cell-Based Dose Retest to Confirm Inhibitors of Cancer Stem Cells. [Related pubchem assays (depositor defined):AID2717, AID2721]; format: functional; settings: Homo sapiens
Protein skinhead-1 = molecular target: T2, Protein skinhead-1 (Caenorhabditis elegans, UniProt P34707); format: functional
T2 sequence (P34707 whole entry): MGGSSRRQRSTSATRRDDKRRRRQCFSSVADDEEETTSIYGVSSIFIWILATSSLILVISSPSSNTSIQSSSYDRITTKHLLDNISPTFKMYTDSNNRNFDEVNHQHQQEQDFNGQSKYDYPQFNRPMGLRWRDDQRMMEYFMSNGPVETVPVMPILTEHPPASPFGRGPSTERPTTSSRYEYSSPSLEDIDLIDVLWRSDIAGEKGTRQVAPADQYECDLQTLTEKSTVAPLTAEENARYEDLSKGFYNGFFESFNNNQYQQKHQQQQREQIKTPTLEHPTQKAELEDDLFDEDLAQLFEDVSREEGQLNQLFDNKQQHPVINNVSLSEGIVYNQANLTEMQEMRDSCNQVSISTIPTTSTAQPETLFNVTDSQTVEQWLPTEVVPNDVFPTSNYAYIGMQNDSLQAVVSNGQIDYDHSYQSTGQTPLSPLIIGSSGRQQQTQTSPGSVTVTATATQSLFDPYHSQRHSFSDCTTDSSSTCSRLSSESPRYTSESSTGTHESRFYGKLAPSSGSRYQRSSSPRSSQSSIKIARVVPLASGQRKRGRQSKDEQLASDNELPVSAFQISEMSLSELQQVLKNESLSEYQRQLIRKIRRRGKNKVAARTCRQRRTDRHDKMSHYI

Estrogen receptor = molecular target: T3, Estrogen receptor (Homo sapiens, UniProt P03372);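 note: potency for inhibiting coactivator peptide recruitment to the receptor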
T3 sequence (P03372 whole entry): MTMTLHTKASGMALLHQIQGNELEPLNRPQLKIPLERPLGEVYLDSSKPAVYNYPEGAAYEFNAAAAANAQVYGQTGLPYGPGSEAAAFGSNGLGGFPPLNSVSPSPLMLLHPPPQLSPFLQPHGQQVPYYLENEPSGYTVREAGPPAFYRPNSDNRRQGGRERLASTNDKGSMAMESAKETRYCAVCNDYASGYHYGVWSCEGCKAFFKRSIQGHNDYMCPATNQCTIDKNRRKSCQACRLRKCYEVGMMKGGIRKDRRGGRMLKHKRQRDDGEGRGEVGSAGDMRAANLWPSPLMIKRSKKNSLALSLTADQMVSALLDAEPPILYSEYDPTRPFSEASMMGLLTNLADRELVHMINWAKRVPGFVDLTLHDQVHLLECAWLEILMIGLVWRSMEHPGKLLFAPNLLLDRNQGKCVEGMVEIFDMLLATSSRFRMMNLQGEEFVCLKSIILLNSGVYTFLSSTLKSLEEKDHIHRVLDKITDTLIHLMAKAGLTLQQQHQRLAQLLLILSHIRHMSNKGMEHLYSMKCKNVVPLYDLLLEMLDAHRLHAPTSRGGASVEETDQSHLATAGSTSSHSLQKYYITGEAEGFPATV

[4] = microbe, parasite or virus in culture; format: functional; settings: Mycobacterium tuberculosis
[5] = Trypanosoma cruzi growth suppression in host cells – NIH3T3 host cells, beta-gal luminescence, confirmation (AID 2044); format: functional, cell-based;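 note: intracellular parasites grown in NIH/3T3 mouse fibroblasts as host cells; luminescent beta-galactosidase reporter signal from transgenic T. cruzi replicating inside host cells; inhibitors lower the luminescence signal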
[6] = NIH3T3 cell viability loss – ATP luminescence, mouse fibroblasts, counter-screen, dose response (AID 2010); format: functional, cell-based;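 note: cells exposed to compound for about 90 hours before reading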
H9c2 = assay: cells; format: functional, cell-based; settings: Rattus norvegicus, H9c2, Myocardium;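 note: confirmatory concentration-response retest of ultra-high-throughput screening hits for modulation of myocardial damage; cell death induced by hydrogen peroxide oxidative stress; compound pretreatment for 60 min then peroxide exposure for 2 h; potency is for protecting the cells against peroxide damage rather than for killing them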
[7] = viability of HCT116 lacking mutant beta-catenin – cell-based, human colon tumor, dose response (AID 1045); format: functional;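 note: HCT116 colon tumor cells with beta catenin knocked out; cells exposed to compound for 60 hours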
[8] = viability of PTEN-deleted HCT116 cells – cell-based, HCT116 PTEN knockout, dose response (AID 1047); format: functional;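 note: HCT116 colon tumor cells with PTEN knocked out; cells exposed to compound for 60 hours before readout; potency for loss of cell viability measured by luminescence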
[9] = molecular target: T4, Carboxy-terminal domain RNA polymerase II polypeptide A small phosphatase 1 (Homo sapiens, UniProt Q9GZU7); assay: CTDSP1 inhibitors, concentration-response, biochemical, absorbance readout, ultra-high-throughput screen actives (AID 540297); format: functional
T4 sequence (Q9GZU7 whole entry): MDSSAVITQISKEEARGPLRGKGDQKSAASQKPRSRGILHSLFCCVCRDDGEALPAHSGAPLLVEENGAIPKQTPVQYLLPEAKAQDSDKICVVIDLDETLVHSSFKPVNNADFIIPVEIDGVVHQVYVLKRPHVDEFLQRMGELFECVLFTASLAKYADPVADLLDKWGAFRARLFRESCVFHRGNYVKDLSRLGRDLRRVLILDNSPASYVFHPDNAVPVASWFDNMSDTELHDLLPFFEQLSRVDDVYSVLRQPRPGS

[10] = molecular target: T5, Heat shock factor protein 1 (Mus musculus, UniProt P38532); assay: decrease of HSF1-responsive luciferase luminescence – cell-based, NIH3T3, dose retest, confirmation (AID 2382); format: functional;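 note: NIH3T3 fibroblasts with HSF1-driven luciferase reporter stressed by proteasome inhibitor MG132; luminescence from HSF1-driven luciferase expression after 8 hours of MG132 stress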
T5 sequence (P38532 whole entry): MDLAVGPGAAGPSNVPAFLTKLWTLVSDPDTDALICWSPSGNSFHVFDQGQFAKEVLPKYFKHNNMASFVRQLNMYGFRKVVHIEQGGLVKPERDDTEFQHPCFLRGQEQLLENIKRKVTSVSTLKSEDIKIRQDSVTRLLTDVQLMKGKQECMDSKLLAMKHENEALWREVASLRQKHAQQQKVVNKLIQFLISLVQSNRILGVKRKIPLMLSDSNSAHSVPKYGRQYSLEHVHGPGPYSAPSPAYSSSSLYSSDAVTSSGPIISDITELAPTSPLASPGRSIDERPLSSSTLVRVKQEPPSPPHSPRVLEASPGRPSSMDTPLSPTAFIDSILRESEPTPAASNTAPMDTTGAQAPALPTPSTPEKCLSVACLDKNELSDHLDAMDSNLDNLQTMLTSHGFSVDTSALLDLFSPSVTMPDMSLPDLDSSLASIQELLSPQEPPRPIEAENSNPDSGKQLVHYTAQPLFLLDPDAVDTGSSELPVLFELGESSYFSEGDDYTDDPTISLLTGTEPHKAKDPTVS

INS1 = assay: INS-1E survival protection against cytokine death – cell-based, luminescence, retest, dose response (AID 449756); format: functional; settings: Rattus norvegicus;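 note: cell death triggered by IL-1 beta plus TNF-alpha plus IFN-gamma mixture; protective hits raise ATP signal compared with cytokine alone wells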

CCCc1nc(SCC(=O)N2CCCc3ccccc32)c2c(=O)n(C)c(=O)n(C)c2n1
IC50 [1]: 16.7 µM (not active)

NC(=O)CC(NC(=O)Cc1ccc(Br)cc1)c1ccc(NC2CCCCCC2)c([N+](=O)[O-])c1 (centres undefined)
CC50 [2]: > 40 µM (active) | AC50 [3]: 4.61 µM (active)

CCn1nc(C(=O)OCC(=O)N2c3ccccc3CC2C)c2ccccc2c1=O (centres undefined)
IC50 [1]: 29.2 µM (not active)

Cc1cc(C(F)(F)F)n2ncc(-c3ccc(F)cc3)c2n1
IC50 (Protein skinhead-1): > 100 µM (inactive)

Cn1nnnc1SCC(=O)NC1CCCCC1
IC50 [1]: < 0.4 µM (not active)

Cc1ccc(CNc2nc3ccccc3n3nnnc23)cc1
IC50 (Estrogen receptor): > 50 µM (not active)

Cc1ccc(-c2noc(C3CCCN(C(=O)c4ccc(C(C)(C)C)cc4)C3)n2)o1 (centres undefined)
CC50 [4]: > 40 µM (active)

COc1cc2cnc(-c3ccsc3)c(-c3ccc(F)cc3)c2cc1OC
CC50 [2]: > 40 µM (active)

Cc1ccc(S(=O)(=O)n2ccc3c(OCCOCCNCc4ccc(F)cc4)cccc32)cc1
CC50 [4]: 13.3 µM (active) | EC50 [5]: 226 nM (active) | EC50 [6]: > 30 µM (not active)

O=C(NC1CCCCC1)C(c1ccc2ncccc2c1)N(Cc1ccco1)C(=O)c1ccc2c(c1)OCCO2 (centres undefined)
CC50 [4]: > 40 µM (active) | IC50 (H9c2): 12.6 µM (active)

CN=C(S)N=NC1=C(O)c2cccc3cccc1c23
EC50 [7]: 10.5 µM (active) | CC50 [2]: 28.2 µM (active) | EC50 [8]: 13.9 µM (active)

COc1ccc(-c2nc(C(N)=O)c3[nH]c(=O)n(-c4cccc(Cl)c4)c3n2)cc1OC
IC50 (Estrogen receptor): 6.26 µM (active)

COc1ccc(N2CCN(c3nc(NC(C)(C)C)nc(N4CCCCC4)n3)CC2)cc1
IC50 [1]: 24.4 µM (not active)

FC(F)(F)c1cccc(NCc2nnc(S)n2C2CCCCC2)c1
IC50 [1]: 27.8 µM (not active)

CC(=O)c1c(C)[nH]c(C(=O)COc2ccc(C#N)cc2)c1C
IC50 (Estrogen receptor): 34 µM (not active)

CCSc1nc2ccccc2c(=O)n1CCc1ccc(OC)c(OC)c1
CC50 [2]: > 40 µM (active)

CCOc1ccc(NC(=O)c2cc3cc4ccc(OC)cc4nc3o2)cc1
IC50 (Estrogen receptor): 47.3 µM (not active) | IC50 [9]: 6.92 µM (active)

CCOc1cc(C)c(S(=O)(=O)NC2CCCCC2)cc1C
IC50 [1]: > 50 µM (not active) | EC50 [10]: > 195 µM (not active)

O=C(CN1CCC(n2nnc3cc(C(F)(F)F)ccc32)CC1)NCc1cccs1
CC50 [4]: > 40 µM (active)

COc1cc(CNc2ccc(NC(C)=O)cc2)ccc1OCc1ccccc1C
CC50 [2]: > 40 µM (active)

COc1cc(CNCCO)cc(Br)c1OCc1ccccc1Cl
CC50 [2]: 20.3 µM (active)

O=C(c1cccc(F)c1)N1CCN(c2cccc(C(F)(F)F)c2)CC1
IC50 (Protein skinhead-1): > 100 µM (inactive)

CCOc1ccc(Oc2ccc(-c3nnc(-c4ccccc4)o3)cc2[N+](=O)[O-])cc1
IC50 [1]: 4.33 µM (not active)

O=C1c2ccccc2C(=O)N1CCc1nc(-c2ccc(Cl)cc2)no1
IC50 (Protein skinhead-1): 94.6 µM (inactive)

CCN(CC)C(=O)c1cc([N+](=O)[O-])cc2c1-c1ccc([N+](=O)[O-])cc1C2=C(C#N)C#N
CC50 [4]: > 40 µM (active) | AC50 (INS1): 6.32 µM (active)

Cc1cc(F)ccc1S(=O)(=O)N1CCCOC1CNC(=O)C(=O)NCc1ccc2c(c1)OCO2 (centres undefined)
IC50 (Protein skinhead-1): > 100 µM (inactive)

c1ccc(-n2nnc(-c3nccs3)n2)cc1
IC50 (Protein skinhead-1): 88.2 µM (inactive)

CCOc1ccc(NC(=O)CCN2CCN(C)CC2)cc1
IC50 (Protein skinhead-1): > 100 µM (inactive)

COCCn1c(SCC(=O)Nc2cccc(C)c2)nnc1C(C)C
IC50 (Protein skinhead-1): > 100 µM (inactive)

C/C(=N\NC(=N)SC1CC(=O)N(c2ccc(Cl)cc2)C1=O)c1cccs1 (centres undefined)
CC50 [4]: > 40 µM (active)
